# Measurements reported in US20240252583A1, “Compositions and Methods for Treating Persistent Postsurgical Pain” (priority 2021, published 2024).
# Read-outs that look alike come from different tables or passages of the source.
# Assays:
# [1] = test system: mRNAs encoding CCL2, CCL3, CCR2, CCR5, IL1β, and TNFα
# [2] = test system: STZ-induced diabetic neuropathic pain; settings: oral administration for 7 days, FIG. 4
# Protocol: Induction and assessment of diabetes in rats: Rats were fasted overnight and given a single intraperitoneal injection of STZ (60 mg/kg, Sigma-Aldrich) in citrate buffer (pH 4.5) to induce type I diabetes. The induction of diabetes was confirmed 72 h post-injection by blood glucose levels (Contour® blood glucose diagnostic kit, Bayer HealthCare, Canada). Body weight and blood glucose levels were measured before and 3 days post-STZ injection and once a week for three weeks post-diabetes induction. Only rats with blood glucose concentration consistently higher than 300 mg/dl were used for the study. Rats used for the study were monitored for persistent mechanical and cold allodynia (up to five months post-induction) and only animals with persistent pain were used. […]
# Cold Allodynia: was assessed using the same apparatus as the von Frey test. Rats were allowed to adapt to the testing environment for at least 10 min. Then, a drop (50 μl) of acetone was applied with a glass syringe fitted with a blunted needle at the centre of the plantar face of a hind paw. Responses were monitored during 1 min after acetone application and were graded according to a 4-point scale: 0, no response; 1, quick withdrawal, flick or stamp of the paw; 2, prolonged withdrawal or repeated flicking of the paw; 3, repeated flicking of the paw with persistent licking directed at the ventral side of the paw. […]
# [3] = test system: post-incisional mechanical allodynia; settings: RAP-103 0.5 mg/kg i.p.
# Excerpt: Data are expressed as mean±standard error of the mean (S.E.M.), and p<0.05 was accepted as statistically significant.
# [4] = test system: stress from PPSP; settings: oral pill, daily administration for one week
# Protocol: A subject is diagnosed with stress from PPSP. A subject is prescribed a dosing regimen of a pharmaceutical composition. The pharmaceutical composition comprises a therapeutically effective amount of RAP-103. RAP-103 is administered orally as a pill to treat the stress from PPSP.
# [5] = test system: obesity; settings: oral, daily administration for 3 weeks
# Protocol: A subject is diagnosed with obesity. The subject is prescribed a dosing regimen of a pharmaceutical composition. The pharmaceutical composition comprises a therapeutically effective amount of RAP-103. RAP-103 is administered orally to treat obesity.
# [6] = Plasma bioavailability and elimination half-life of RAP-103 (species not stated); assay type: in vivo; settings: oral, i.p., ss, and IV dosing
# [7] = Plasma pharmacokinetics and acute tolerability of RAP-103 in non-human primates; assay type: in vivo, Rhesus macaques (Macaca mulatta)
# Protocol: In non-human primates (rhesus monkeys) RAP-103 was dosed once on Day 1 by intravenous bolus injection at 1 mg/kg and plasma levels determined. […] Drug in plasma after a single IV dose (1 mg/Kg) was still measurable at anticipated therapeutic levels 96 hrs. post-dose in non-human primates as shown in FIG. 2B.
# [8] = Brain entry and pharmacokinetics of RAP-103 after oral gavage and IV dosing; assay type: in vivo, rats and guinea pigs
# [9] = test system: STZ-induced diabetic neuropathic pain
# Protocol: Chronic pain development was determined with behavior and molecular/cellular testing and inflammatory reactions in Streptozotocin (STZ)-induced diabetic rats treated with RAP-103.
# Induction and assessment of diabetes in rats: Rats were fasted overnight and given a single intraperitoneal injection of STZ (60 mg/kg, Sigma-Aldrich) in citrate buffer (pH 4.5) to induce type I diabetes. The induction of diabetes was confirmed 72 h post-injection by blood glucose levels (Contour® blood glucose diagnostic kit, Bayer HealthCare, Canada). Body weight and blood glucose levels were measured before and 3 days post-STZ injection and once a week for three weeks post-diabetes induction. Only rats with blood glucose concentration consistently higher than 300 mg/dl were used for the study. Rats used for the study were monitored for persistent mechanical and cold allodynia (up to five months post-induction) and only animals with persistent pain were used.
# This solution was prepared freshly for each experiment and kept for 8 days (duration of one experiment) at room temperature. Appropriate concentration for each dose was adjusted accordingly.
# Treatment paradigms: Autoclaved water (vehicle) or RAP-103 (0.004, 0.02, 0.1 or 0.5 mg/kg b.w.) was administered daily for 8 days by oral gavage to rats with stable mechanical and cold allodynia (n=5 H2O; n=7 RAP-103).
# Assessment of neuropathic pain: Tactile allodynia, mechanical sensitivity was assessed using calibrated. Animals were placed in plexiglass boxes on an elevated metal mesh floor and allowed 60 min for habituation before testing. A series of von Frey filaments with logarithmically incrementing stiffness (Stoelting) was applied perpendicular to the midplantar region of the hind paw. The 50% paw withdrawal threshold was determined using Dixon's up-down method. Withdrawal thresholds of both paws were averaged as one single value per animal.
# Cold Allodynia: was assessed using the same apparatus as the von Frey test. Rats were allowed to adapt to the testing environment for at least 10 min. Then, a drop (50 μl) of acetone was applied with a glass syringe fitted with a blunted needle at the centre of the plantar face of a hind paw. Responses were monitored during 1 min after acetone application and were graded according to a 4-point scale: 0, no response; 1, quick withdrawal, flick or stamp of the paw; 2, prolonged withdrawal or repeated flicking of the paw; 3, repeated flicking of the paw with persistent licking directed at the ventral side of the paw. Cumulative scores were then obtained by summing the four scores for each rat, the minimum score being 0 (no response to any of the four trials) and the maximum possible score being 12 (repeated flicking and licking of paws on each of the four trials). Rats were habituated to the testing environment. […] All data is presented as means±SEM. Statistical analysis was performed by two-way ANOVA followed by Bonferroni post-tests. The criterion for statistical significance was p<0.05.
# [10] = test system: plasma cytokines; assay: Plasma cytokine measurements in patients treated with DAPTA (capillary electrophoresis and ELISA); assay type: in vivo, humans
# Excerpt: The specific cytokines IL-1β, IL-10 and IL-12 have been identified as imbalanced following total knee replacement surgeries which increases risk for persistent post-operative pain. Measurement of these cytokines may be used to predict response to therapy, such as treatment by any of the peptides, salts thereof, or compositions of these, including those herein. Since the administration of the peptide DAPTA normalizes multiple plasma cytokines associated with PPSP then DAPTA and other analogs as we have described may be used to treat chronic pain conditions, specifically PPSP. Five HIV patients received DAPTA, 3 mgs/day, by metered nasal spray for 6 to 8 weeks (mean 7+0.6 wks). Patients were not taking other concurrent anti-pain or anti-retroviral therapies. At the beginning and end of the study period heparinized blood was collected and immediately clarified by centrifugation. Plasma aliquots were made and stored frozen at −70 C° for further testing. All sample testing was done on blinded samples at independent testing centers.
# Cytokine measurements in patients treated with DAPTA were made after capillary electrophoresis isolation of individual cytokine peaks, followed by enzyme-linked immunoassay using specific antibodies. […] Separated chemical compounds appear as peaks with different migration times in an electropherogram. The purified sample peaks were individually collected and concentration determined by a quantitative enzyme-linked immunosorbent assay (ELISA) using specific antibodies to determine the analyte concentration.
# [11] = target: CX3CR1 (Homo sapiens, UniProt P49238); settings: CX3CL1 2.5 nM, FIG. 8
# Sequence of CX3CR1 (P49238 whole entry): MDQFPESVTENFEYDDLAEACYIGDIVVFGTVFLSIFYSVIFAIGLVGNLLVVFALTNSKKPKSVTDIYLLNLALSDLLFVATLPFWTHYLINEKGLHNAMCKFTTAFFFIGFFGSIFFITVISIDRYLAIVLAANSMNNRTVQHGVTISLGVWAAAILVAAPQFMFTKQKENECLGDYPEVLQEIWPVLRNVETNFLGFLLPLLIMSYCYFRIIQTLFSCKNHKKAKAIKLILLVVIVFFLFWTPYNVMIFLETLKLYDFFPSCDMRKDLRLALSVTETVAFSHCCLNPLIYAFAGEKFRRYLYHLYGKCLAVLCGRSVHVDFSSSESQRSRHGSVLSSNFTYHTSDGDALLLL
# Protocol: All peptides were purified to >95% homogeneity and verified by HPLC isolation, amino acid analysis, and mass spectroscopy. Peptides were dissolved in sterile water and stored as frozen (−20° C.) aliquots at 0.1 mM until use. Chemotaxis was assayed in 96-well plates (NeuroProbe, Cabin John, MD) with […] pore size, PVP-free membranes. Purified human monocytes (>95%) prepared from healthy adult human donors by centrifugal elutriation (>95% pure) were resuspended in chemotaxis assay buffer (DMEM supplemented with 0.1% BSA) at a density of 2×10^6 cells/ml. Cells were labelled with 1.0 μM Calcein AM (Invitrogen) for 30 minutes at 37° C., 5% CO2. Following incubation, cells were washed once and resuspended in chemotaxis assay buffer (DMEM, 1 mg/ml BSA, 25 mM Hepes) at a density of 2×10^6 cells/ml. […] The filter plate ([…] pore size, PVP-free membrane) was snapped on over the filled wells and the monocytes were loaded onto the upper filter surface ([…] in 25 μl). […] At the conclusion of the test period, non-migrating cells were wiped off the upper filter surface and relative fluorescence units (RFUs) of the migrating cells from the lower surface determined by bottom reading in a spectrometer (M5 SpectraMax) at 485/530 nm (Ex/Em). Triplicate determinations were made and results are expressed as the mean Relative Fluorescence Units as depicted in FIG. 8.
# [12] = partial nerve ligation and diabetic pain
# [13] = plasma, five HIV patients, 3 mgs/day nasal spray, 6 to 8 weeks
molecule,measurement,setting,value
"C[C@H](O)[C@@H](N)C(=O)N[C@@H](C(=O)N[C@H](CC(N)=O)C(=O)N[C@H](Cc1ccc(O)cc1)C(=O)N[C@@H](C(=O)O)[C@H](C)O)[C@H](C)O [RAP-103, All D-peptide-Thr-Thr-Asn-Tyr-Thr]",chemokine receptor CCR2,"[1]; neuropathic pain, FIG. 5",lowered
same,chemokine receptor CCR5,"[1]; neuropathic pain, FIG. 5",lowered
same,spinal cord mRNA encoding cytokines and chemokines,"[1]; oral administration for 7 days versus vehicle (H20), FIG. 5",reductions
same,CCL3,[1]; [12],significantly reduced
same,IL-1β,[1]; [12],significantly reduced
same,TNFα,[1]; [12],significantly reduced
same,cold allodynia,[2],reductions
same,increase of the potency of morphine,[3],over 2 fold
same,stress and pain in patient suffering from PPSP,[4],reduced
same,subject's weight,[5],decreases
same,half-life,"[6]; in vivo, read-out: half-life (HL) elimination (converted)",~2.7 h
same,plasma bioavailability,[6],significant plasma bioavailability
same,Cmax and AUC 0-T in male versus female monkeys,[7]; 1 mg/kg,comparable
same,RAP-103-related changes in clinical observations or body weights,[7]; over seven days after dosing,no acute toxicity
same,time post-dose at which drug in plasma was still measurable at anticipated therapeutic levels,"[7]; single IV dose 1 mg/Kg, FIG. 2B",≥ 96 h
same,brain entry by oral compared to IV dosing,[8]; FIG. 2A,preferentially entered the brain by oral compared to IV dosing
same,brain entry,[8]; IV or oral gavage dosing,quickly entered the brain
same,persistence at therapeutic levels in brain,"[8]; IV or oral gavage dosing, FIG. 2A",at least 24 hrs
same,brain entry compared to plasma levels,[8]; in vivo,preferentially enters the brain compared to plasma levels
same,effect on mechanical allodynia by dose,[9]; 0.004 mg/kg daily oral,not
same,effect on mechanical allodynia by dose,[9]; 0.02 mg/kg daily oral,effective
same,effect on mechanical allodynia by dose,[9]; 0.1 mg/kg daily oral,effective
same,effect on mechanical allodynia by dose,[9]; 0.5 mg/kg daily oral,effective
same,time until reversal of hypersensitivity became significant,[9]; daily oral gavage,24 to 48 h
dASTTTNYT-NH2 [DAPTA],"cytokines IL-4, IL-10, IL-12 and IL-13","[10]; intranasal dosing, P<0.005",increased significantly
same,"plasma levels of IL-1β, IL-6, IL-8, and TNFα","[10]; intranasal dosing, P<0.005",significant reductions
same,IL-1β % CHANGE BASELINE to POST-DRUG,"[10]; plasma, **p < .005",−46%**
same,IL-2 % CHANGE BASELINE to POST-DRUG,"[10]; plasma, **p < .005",+395** %
same,IL-4 % CHANGE BASELINE to POST-DRUG,"[10]; plasma, **p < .005",+448** %
same,IL-6 % CHANGE BASELINE to POST-DRUG,"[10]; plasma, **p < .005",−28%**
same,IL-8 % CHANGE BASELINE to POST-DRUG,"[10]; plasma, **p < .005",−30%**
same,IL-10 % CHANGE BASELINE to POST-DRUG,"[10]; plasma, **p < .005",+350** %
same,IL-12 % CHANGE BASELINE to POST-DRUG,"[10]; plasma, **p < .005",+363** %
same,IL-13 % CHANGE BASELINE to POST-DRUG,"[10]; plasma, **p < .005",+416** %
same,TNFα % CHANGE BASELINE to POST-DRUG,"[10]; plasma, **p < .005",−23%**
same,IL-1β CYTOKINE MEAN ± s.e.m. Post-Treatment,[10]; [13],174 ± 26 pgs/ml
same,IL-2 CYTOKINE MEAN ± s.e.m. Post-Treatment,[10]; [13],57 ± 9 pgs/ml
same,IL-4 CYTOKINE MEAN ± s.e.m. Post-Treatment,[10]; [13],28 ± 8 pgs/ml
same,IL-6 CYTOKINE MEAN ± s.e.m. Post-Treatment,[10]; [13],130 ± 21 pgs/ml
same,IL-8 CYTOKINE MEAN ± s.e.m. Post-Treatment,[10]; [13],144 ± 76 pgs/ml
same,IL-10 CYTOKINE MEAN ± s.e.m. Post-Treatment,[10]; [13],45 ± 5 pgs/ml
same,IL-12 CYTOKINE MEAN ± s.e.m. Post-Treatment,[10]; [13],33 ± 7 pgs/ml
same,IL-13 CYTOKINE MEAN ± s.e.m. Post-Treatment,[10]; [13],30 ± 9 pgs/ml
same,TNFα CYTOKINE MEAN ± s.e.m. Post-Treatment,[10]; [13],260 ± 67 pgs/ml
all-D-ASTTTNYT [RAP-310],"CX3CR1 mediated human monocyte chemotaxis, % of control migration",[11]; 0.01 pM,38 % of control migration
same,"CX3CR1 mediated human monocyte chemotaxis, % of control migration",[11]; 1 pM,24 % of control migration
